# Reference: ChEMBL document CHEMBL1201862, “PubChem BioAssay data set” (2004)
# Calls of active or inactive are those of the source.
# Key:
# Protein skinhead-1 = target: T1, Protein skinhead-1 (Caenorhabditis elegans, UniProt P34707); format: functional
# T1 sequence (P34707 whole entry): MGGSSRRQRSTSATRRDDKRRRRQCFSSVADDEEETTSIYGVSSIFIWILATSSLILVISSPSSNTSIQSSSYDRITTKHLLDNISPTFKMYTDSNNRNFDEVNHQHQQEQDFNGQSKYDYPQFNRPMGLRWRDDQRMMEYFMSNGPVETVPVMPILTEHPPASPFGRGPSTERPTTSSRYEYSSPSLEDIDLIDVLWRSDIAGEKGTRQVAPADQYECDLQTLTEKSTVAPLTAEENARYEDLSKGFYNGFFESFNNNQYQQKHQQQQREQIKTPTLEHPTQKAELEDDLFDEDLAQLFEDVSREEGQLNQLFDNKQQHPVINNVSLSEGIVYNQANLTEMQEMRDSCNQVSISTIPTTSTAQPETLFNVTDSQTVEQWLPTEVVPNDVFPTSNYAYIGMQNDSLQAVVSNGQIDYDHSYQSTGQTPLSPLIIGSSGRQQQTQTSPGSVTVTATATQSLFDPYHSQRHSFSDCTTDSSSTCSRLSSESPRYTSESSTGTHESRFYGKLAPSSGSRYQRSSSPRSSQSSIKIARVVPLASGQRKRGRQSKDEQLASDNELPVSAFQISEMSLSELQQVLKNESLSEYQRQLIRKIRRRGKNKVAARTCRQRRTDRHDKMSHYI
# Cytochrome P450 3A4 = Cytochrome P450 3A4 (Homo sapiens, UniProt P08684);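 also: CYP3A4 tested as one member of a cytochrome P450 panel screen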
# Chain of Cytochrome P450 3A4 (P08684 whole entry): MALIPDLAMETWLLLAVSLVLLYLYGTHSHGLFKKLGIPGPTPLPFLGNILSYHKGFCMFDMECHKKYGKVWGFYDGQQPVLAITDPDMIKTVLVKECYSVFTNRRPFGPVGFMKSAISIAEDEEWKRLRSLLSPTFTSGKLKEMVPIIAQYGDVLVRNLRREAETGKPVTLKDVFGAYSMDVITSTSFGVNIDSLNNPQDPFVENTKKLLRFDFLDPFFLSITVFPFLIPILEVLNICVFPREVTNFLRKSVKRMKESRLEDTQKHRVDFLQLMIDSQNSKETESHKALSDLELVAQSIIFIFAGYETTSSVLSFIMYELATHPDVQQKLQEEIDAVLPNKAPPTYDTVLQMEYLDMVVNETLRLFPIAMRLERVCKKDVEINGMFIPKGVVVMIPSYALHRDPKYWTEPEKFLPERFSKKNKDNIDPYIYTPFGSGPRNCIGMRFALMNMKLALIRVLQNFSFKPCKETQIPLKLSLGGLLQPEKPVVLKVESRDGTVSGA
# [1] = loss of viability in HepG2 cells – cell-based, CellTiter-Glo, cherry-picked, cytotoxicity control for Shn3 inhibitor project, dose response (AID 624134); format: functional
# [2] = reduction of Shn3 3'UTR-driven luciferase in osteoblasts – cell-based, Clone20 osteoblasts, firefly luciferase, cherry-picked, dose response (AID 624132); format: functional;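 also: firefly luciferase luminescence from reporter carrying the Shn3 3'UTR in osteoblasts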
# [3] = non-specific 3'UTR reporter inhibition in Clone20-Shn3RL – cell-based, Renilla luciferase, cherry-picked, counter-screen for Shn3 inhibitor project, dose response (AID 624133); format: functional
# Cytochrome P450 1A2 = target: T2, Cytochrome P450 1A2 (Homo sapiens, UniProt P05177);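 also: PubChem cytochrome P450 panel assay, CYP1A2 panel member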
# T2 sequence (P05177 whole entry): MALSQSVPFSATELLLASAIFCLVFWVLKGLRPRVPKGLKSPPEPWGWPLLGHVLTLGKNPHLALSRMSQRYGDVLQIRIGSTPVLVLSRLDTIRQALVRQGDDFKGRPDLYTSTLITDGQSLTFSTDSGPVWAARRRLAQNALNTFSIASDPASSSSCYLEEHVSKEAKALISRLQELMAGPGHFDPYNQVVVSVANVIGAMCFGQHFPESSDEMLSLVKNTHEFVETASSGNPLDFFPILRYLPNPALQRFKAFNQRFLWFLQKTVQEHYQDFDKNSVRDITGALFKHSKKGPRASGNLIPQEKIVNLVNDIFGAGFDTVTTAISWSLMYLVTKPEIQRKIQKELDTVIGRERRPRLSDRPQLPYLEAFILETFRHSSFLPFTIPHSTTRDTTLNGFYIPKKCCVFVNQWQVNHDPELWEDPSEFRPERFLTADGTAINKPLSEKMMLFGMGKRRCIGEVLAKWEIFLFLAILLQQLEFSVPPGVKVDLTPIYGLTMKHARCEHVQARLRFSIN
# [4] = target: T3, Alkaline phosphatase, tissue-nonspecific isozyme (Homo sapiens, UniProt P05186); test: potency against alkaline phosphatase TNAP – biochemical, luminescent, dose response, SAR follow-up (AID 1056)
# T3 sequence (P05186 whole entry): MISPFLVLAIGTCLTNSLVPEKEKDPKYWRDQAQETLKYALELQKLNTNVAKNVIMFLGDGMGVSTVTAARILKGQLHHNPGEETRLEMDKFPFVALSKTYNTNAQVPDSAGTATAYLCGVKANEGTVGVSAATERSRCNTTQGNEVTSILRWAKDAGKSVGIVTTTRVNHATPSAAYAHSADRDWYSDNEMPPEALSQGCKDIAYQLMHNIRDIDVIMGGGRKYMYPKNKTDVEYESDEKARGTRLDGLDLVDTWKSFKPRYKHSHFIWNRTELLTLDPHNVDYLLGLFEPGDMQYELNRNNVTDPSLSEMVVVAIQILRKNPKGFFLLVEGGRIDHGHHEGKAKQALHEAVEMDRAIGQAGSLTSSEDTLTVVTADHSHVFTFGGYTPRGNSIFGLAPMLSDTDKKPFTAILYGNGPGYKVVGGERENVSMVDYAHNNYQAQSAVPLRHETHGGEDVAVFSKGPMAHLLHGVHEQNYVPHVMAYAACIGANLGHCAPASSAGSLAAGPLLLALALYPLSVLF
# [5] = target: Glyceraldehyde-3-phosphate dehydrogenase (Homo sapiens, UniProt P04406)
# Chain of Glyceraldehyde-3-phosphate dehydrogenase (P04406 whole entry): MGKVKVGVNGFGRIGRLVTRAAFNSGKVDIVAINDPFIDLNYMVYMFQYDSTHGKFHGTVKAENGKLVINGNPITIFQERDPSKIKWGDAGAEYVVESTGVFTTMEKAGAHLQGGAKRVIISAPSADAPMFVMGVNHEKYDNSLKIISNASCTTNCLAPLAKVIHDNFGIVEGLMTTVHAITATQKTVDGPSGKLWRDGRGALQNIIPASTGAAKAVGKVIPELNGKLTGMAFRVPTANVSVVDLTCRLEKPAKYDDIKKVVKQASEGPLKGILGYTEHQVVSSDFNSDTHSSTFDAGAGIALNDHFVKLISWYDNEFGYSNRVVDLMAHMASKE
# [6] = HEK-293T cell viability reduction – luminescence, B-cell screen hits, cytotoxicity control for BCR NF-kB inhibitor project, dose response (AID 489021); format: functional, cell-based;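 also: HEK-293T cells carrying an NF-kB luciferase reporter; cells exposed to compound for about 14 hours before viability readout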
# Coagulation factor XII = target: T4, Coagulation factor XII (Homo sapiens, UniProt P00748); format: functional;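 also: activated factor XIIa alpha cleaving a fluorogenic AMC peptide substrate; inhibitor potency from loss of enzyme activity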
# T4 sequence (P00748 whole entry): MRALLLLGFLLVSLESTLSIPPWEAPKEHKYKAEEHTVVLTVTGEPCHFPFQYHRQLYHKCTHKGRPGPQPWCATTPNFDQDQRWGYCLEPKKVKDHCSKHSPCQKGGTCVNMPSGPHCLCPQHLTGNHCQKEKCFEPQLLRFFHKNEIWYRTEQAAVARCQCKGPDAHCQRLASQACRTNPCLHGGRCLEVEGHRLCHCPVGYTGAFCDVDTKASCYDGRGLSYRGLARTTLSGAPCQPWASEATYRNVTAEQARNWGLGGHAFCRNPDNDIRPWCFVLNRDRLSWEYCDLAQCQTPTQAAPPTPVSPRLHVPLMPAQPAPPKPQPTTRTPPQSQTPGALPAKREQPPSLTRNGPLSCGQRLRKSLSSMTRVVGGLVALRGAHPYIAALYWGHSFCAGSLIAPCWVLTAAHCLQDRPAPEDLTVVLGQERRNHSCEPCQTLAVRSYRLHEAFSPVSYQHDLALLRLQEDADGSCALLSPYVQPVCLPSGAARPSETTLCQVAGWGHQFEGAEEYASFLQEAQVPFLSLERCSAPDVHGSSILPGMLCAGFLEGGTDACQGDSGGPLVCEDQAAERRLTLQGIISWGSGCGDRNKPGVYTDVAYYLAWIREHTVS
# [7] = Vero E6 cell cytotoxicity, dose response, cytotoxicity control for non-replicating M. tuberculosis project, secondary assay (AID 492998); format: functional, VeroE6; details: Vero C1008
# [8] = THP-1 cell cytotoxicity, dose response, cytotoxicity control for non-replicating M. tuberculosis project (AID 489025); format: functional
# cells = format: functional
# [9] = target: Luciferin 4-monooxygenase (Photinus pyralis, UniProt P08659); test: inhibition of purified Photinus pyralis luciferase – biochemical, luminescence, dose response (AID 1891)
# Chain of Luciferin 4-monooxygenase (P08659 whole entry): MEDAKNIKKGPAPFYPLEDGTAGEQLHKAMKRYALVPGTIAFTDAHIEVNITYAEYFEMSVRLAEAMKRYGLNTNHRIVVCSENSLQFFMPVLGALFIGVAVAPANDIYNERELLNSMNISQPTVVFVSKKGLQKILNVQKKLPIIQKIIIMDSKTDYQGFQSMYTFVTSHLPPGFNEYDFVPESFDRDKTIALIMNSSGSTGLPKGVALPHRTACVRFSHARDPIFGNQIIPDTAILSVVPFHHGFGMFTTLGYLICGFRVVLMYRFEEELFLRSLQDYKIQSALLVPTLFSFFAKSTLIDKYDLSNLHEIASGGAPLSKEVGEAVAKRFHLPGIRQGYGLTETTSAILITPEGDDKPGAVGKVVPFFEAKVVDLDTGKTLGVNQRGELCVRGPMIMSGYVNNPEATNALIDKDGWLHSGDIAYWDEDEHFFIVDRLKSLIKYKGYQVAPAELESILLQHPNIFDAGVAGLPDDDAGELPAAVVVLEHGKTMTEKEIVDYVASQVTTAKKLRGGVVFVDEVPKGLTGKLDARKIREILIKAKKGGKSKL
# [10] = Luminescence Cell-Based Dose Confirmation HTS to Identify Inhibitors of Platelet Dense Granule Release. [Related pubchem assays: 1663 (Primary HTS), 1678 (Summary of Project)]; format: functional
# Cytochrome P450 2C19 = Cytochrome P450 2C19 (Homo sapiens, UniProt P33261); test: Cytochrome panel assay with activity outcomes. Panel member name: p450-cyp2c19 Compounds with AC50 equal or less than 10 uM are considered active; format: functional; details: read-out: AC50
# Chain of Cytochrome P450 2C19 (P33261 whole entry): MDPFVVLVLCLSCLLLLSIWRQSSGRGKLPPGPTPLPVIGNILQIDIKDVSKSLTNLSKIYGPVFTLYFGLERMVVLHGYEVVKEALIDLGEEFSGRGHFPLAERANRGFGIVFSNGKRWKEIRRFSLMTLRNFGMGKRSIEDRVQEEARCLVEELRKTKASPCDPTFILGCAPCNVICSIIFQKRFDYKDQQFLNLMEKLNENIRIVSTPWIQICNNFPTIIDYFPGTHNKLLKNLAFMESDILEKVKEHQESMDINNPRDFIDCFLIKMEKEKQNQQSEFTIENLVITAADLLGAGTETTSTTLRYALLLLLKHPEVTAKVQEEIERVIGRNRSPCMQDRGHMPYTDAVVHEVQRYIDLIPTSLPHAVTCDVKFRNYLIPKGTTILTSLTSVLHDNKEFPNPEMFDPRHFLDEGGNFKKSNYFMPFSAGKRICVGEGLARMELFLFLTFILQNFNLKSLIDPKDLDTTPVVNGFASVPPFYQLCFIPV
# Cytochrome P450 2C9 = Cytochrome P450 2C9 (Homo sapiens, UniProt P11712)
# Chain of Cytochrome P450 2C9 (P11712 whole entry): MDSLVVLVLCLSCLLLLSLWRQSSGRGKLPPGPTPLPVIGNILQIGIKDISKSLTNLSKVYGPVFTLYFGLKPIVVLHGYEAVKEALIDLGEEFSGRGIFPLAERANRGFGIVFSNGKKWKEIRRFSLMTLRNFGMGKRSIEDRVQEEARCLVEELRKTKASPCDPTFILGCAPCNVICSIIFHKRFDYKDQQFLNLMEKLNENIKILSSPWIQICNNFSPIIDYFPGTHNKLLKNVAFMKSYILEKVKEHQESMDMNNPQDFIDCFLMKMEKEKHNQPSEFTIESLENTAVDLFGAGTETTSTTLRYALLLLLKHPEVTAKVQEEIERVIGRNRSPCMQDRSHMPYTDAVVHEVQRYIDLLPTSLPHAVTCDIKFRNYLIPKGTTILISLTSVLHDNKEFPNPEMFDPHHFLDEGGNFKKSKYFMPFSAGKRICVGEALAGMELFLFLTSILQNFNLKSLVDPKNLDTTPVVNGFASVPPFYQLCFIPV
# [11] = target: T5, Heat shock factor protein 1 (Mus musculus, UniProt P38532); test: decrease of HSF1-responsive luciferase luminescence – cell-based, NIH3T3, dose retest, confirmation (AID 2382); format: functional;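 also: NIH3T3 fibroblasts with HSF1-driven luciferase reporter stressed by proteasome inhibitor MG132; luminescence from HSF1-driven luciferase expression after 8 hours of MG132 stress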
# T5 sequence (P38532 whole entry): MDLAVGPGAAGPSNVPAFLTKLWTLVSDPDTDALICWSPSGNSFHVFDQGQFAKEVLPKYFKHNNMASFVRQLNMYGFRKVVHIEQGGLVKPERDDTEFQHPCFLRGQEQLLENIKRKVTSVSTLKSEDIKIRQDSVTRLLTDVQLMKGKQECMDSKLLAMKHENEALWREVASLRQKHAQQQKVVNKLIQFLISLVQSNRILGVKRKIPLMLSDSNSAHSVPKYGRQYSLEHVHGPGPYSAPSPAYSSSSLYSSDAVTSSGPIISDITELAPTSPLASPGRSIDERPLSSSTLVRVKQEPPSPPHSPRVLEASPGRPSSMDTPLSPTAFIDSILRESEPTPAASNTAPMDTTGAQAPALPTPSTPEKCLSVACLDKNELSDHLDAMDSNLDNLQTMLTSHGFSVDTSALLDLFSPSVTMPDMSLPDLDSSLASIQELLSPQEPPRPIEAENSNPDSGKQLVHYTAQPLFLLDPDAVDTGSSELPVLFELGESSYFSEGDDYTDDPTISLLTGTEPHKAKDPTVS
# BJ [12] = test: BJ-TERT-LT-ST fibroblast viability loss – cell-based, RAS-independent, luminescence, dose response (AID 1935); format: functional; details: Homo sapiens;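 also: BJ fibroblasts immortalized with TERT plus LT and ST oncogenes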
# [13] = DRD fibroblast viability loss – cell-based, non-viral oncogenic, luminescence, dose response (AID 1934); format: functional; details: Homo sapiens
# [14] = HEK-293T viability loss after treatment – luminescence, T-cell screen hits, cytotoxicity control for TCR NF-kB inhibitor project, dose response (AID 489026); format: functional, cell-based;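 also: cells exposed to compound about 14 hours before the viability readout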
# BJ [15] = test: cells; format: functional, cell-based; details: Homo sapiens
# BJ [16] = test: BJ-TERT fibroblast viability loss – cell-based, RAS-independent, luminescence, dose response (AID 1933); format: functional; details: Homo sapiens
# [17] = target: Heat shock protein HSP 90-alpha (Homo sapiens, UniProt P07900); format: functional, organism-based
# [18] = A Cell Based Secondary Assay To Explore Cytotoxicity of Compounds that Sensitize Mycobacterium Tuberculosis to Beta-Lactam Antibiotics.; format: functional
# [19] = Luminescence Cell-Based Dose Response HTS to Identify Inhibitors of 5'UTR Stem-Loop Driven Prion Protein mRNA Translation in H4 Neuroglioblastoma Cells. [Related pubchem assays: 1827 (Project Summary), 1813 (Primary HTS)]; format: functional
# [20] = luciferase reporter signal suppression in cells – H4 neuroglioma cells, luminescence, dose response (AID 1990); format: functional, cell-based
# Melanocortin receptor 4 = Melanocortin receptor 4 (Homo sapiens, UniProt P32245); format: functional, cell-based;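 also: Cell-based assay with luminescence read-out, confirmatory dose-response testing for agonist activity of biased ligands at MC4R; human U2OS cells with tagged receptor and beta-arrestin; potency of agonists that increase receptor coupling to beta-arrestin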
# Chain of Melanocortin receptor 4 (P32245 whole entry): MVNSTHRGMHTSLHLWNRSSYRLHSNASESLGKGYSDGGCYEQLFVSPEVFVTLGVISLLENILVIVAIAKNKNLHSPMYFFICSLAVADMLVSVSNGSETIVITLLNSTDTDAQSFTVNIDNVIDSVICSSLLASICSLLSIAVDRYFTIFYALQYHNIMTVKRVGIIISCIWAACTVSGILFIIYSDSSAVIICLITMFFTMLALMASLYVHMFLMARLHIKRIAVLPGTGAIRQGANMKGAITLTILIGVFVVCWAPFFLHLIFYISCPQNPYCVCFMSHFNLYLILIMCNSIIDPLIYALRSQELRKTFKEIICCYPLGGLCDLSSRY
# [21] = alpha-synuclein stem-loop luciferase translation blockers – H4 neuroglioma cells, luminescence, confirmation (AID 1988); format: functional, cell-based
structure (smiles),measurement,setting,value
Cc1c(C(=O)Nc2cccc(C(F)(F)F)c2)oc2ccc(S(=O)(=O)N3CCOCC3)cc12,IC50,Protein skinhead-1,> 100 µM (inactive)
same,AC50,Cytochrome P450 3A4,inconclusive
same,AC50,[1],> 70 µM (inactive)
same,AC50,[2],3.8 µM (active)
same,AC50,[3],> 70 µM (inactive)
same,AC50,Cytochrome P450 1A2,10 µM (inconclusive)
Cc1c(CCO)c(O)oc2nnc(-c3ccccc3)c1-2,IC50,[4],> 100 µM (inactive)
same,IC50,[5],> 100 µM (not active)
C=CCN1C(=O)NC(=O)/C(=C(\C)NC(C)c2ccccc2)C1=O (stereo not given),IC50,[6],> 80 µM (inactive)
CCOC(=O)C1(Cc2cccc(F)c2)CCN(C(=O)Cn2cnnn2)CC1,IC50,Coagulation factor XII,> 50 µM (inactive)
Cc1cc(NC(=O)c2ccccc2F)n(-c2nc3ccccc3[nH]2)n1,CC50,[7],17.6 µM (active)
same,CC50,[8],> 40 µM (active)
same,IC50,cells,> 50 µM (active)
CCOC(=O)c1c(C)nc2sc3c(=O)n(-c4ccc(OC)cc4)nnc3c2c1-c1ccc(OC)cc1,EC50,[9],> 112 µM (not active)
same,AC50,Cytochrome P450 3A4,inconclusive
same,EC50,[10],> 112 µM (not active)
same,AC50,Cytochrome P450 2C19,2.51 µM (inconclusive)
CN(C)CCC/N=C/c1c(-c2ccccc2)nn(-c2nc3ccccc3s2)c1O,IC50,[6],> 80 µM (inactive)
CC(=O)O[C@H]1CC[C@@]2(C)C(=CC[C@@H]3[C@H]2CC[C@]2(C)C(=O)CC[C@H]32)C1,AC50,Cytochrome P450 3A4,inconclusive
same,AC50,Cytochrome P450 2C9,15.8 µM (inconclusive)
same,AC50,Cytochrome P450 2C19,5.01 µM (inconclusive)
Cc1ccc(-c2cc3c(N=O)c4ccccc4c-3[nH]n2)cc1,EC50,[11],4.95 µM (active)
same,EC50,BJ [12],13.1 µM (active)
same,EC50,[9],0.207 µM (active)
same,EC50,[13],6.32 µM (active)
same,EC50,[10],3.05 µM (active)
same,IC50,[14],> 80 µM (inactive)
same,EC50,BJ [15],6.73 µM (active)
same,EC50,BJ [16],6.45 µM (active)
Cc1cc2ncn(CC(=O)c3ccc(O)c(O)c3)c2cc1C,IC50,[4],> 100 µM (inactive)
CC(C)(C)c1nn(-c2ccccc2)c2nc(O)c(CNc3ccc4c(c3)OCCO4)cc12,EC50,[11],83.3 µM (active)
same,AC50,[17],8.3 µM (active)
same,CC50,[18],> 40 µM (active)
CC(C)Cn1c(-c2ccccc2)nc2ccccc2c1=O,IC50,Coagulation factor XII,> 50 µM (inactive)
Cn1c(=O)cc(OCCCC(=O)NCc2ccccn2)c2ccccc21,IC50,[6],> 80 µM (inactive)
O=C1c2ccccc2C(=O)N1c1nc(-c2cccnc2)n[nH]1,IC50,[4],> 100 µM (inactive)
same,IC50,[5],> 100 µM (not active)
O=C(c1cccc(F)c1)N1CCC2(CC1)CN(c1ccc(-c3ccccc3)cc1)C2,AC50,Cytochrome P450 3A4,inconclusive
Cn1nc(-c2ccc(Cl)cc2)c2cc(C(=O)N3CCCC3)sc21,IC50,[6],> 80 µM (inactive)
NNC(=O)c1cc(-c2ccc(Cl)c(Cl)c2Cl)n[nH]1,IC50,[4],0.633 µM (active)
same,IC50,[5],> 10 µM (inconclusive)
CCOc1ccc(CC(=O)C2C(=O)CCCC2=O)cc1OCC,AC50,Cytochrome P450 3A4,inconclusive
same,AC50,Cytochrome P450 2C19,39.8 µM (inconclusive)
COc1cccc(/C=C2/SC(=S)N(CCCC(=O)Nc3ccc(O)cc3)C2=O)c1,EC50,[19],8.15 µM (active)
same,EC50,[20],6.72 µM (active)
same,EC50,Melanocortin receptor 4,> 89.2 µM (inactive)
same,EC50,[21],16.3 µM (active)
same,IC50,[6],29 µM (inactive)
CC1(C)CC(=O)c2c(n[nH]c2-c2cccs2)C1,IC50,[4],5.65 µM (active)
same,IC50,[5],> 10 µM (inconclusive)
